Experimental data: US20260240740A1, “MULTI-PHOTOPROTECTIVE COMPOUNDS AND USES THEREOF” (SKINOSIVE, priority 2022, published 2026)

How the values were obtained:
pig skin = assay: UV protection ex vivo on pig skin by autofluorescence quenching
Experimental: UV Protection Performance of Compound #2 (OOD) UVB and UVA protections have been assessed ex vivo on pig skin by measuring the autofluorescence quenching. OOD (Compound #2), the mix of DHHB+OCR were solubilized at the same molar concentration in Dottisol (isosorbide dimethyl ether), covered 6.25 cm2 skin square and incubated 20 min or 2 hours at room temperatures, and then 7 mm skin punches were cut and placed in a black 96-well plate. UVB and UVA protections were measured after respectively an excitation at 300 nm and 355 nm and a fluorescence emission was read at 460 nm. DMSO was added on the pig skin before the reading of the residual fluorescence.
UVB and UVA protections have been assessed ex vivo on pig skin by measuring the autofluorescence quenching. BOO (Compound #5) and the mix of BEMT+OCR were solubilized at the same molar concentration in Dottisol (isosorbide dimethyl ether), covered 6.25 cm^2 skin square and incubated 4 hours at 34° C., washed or not with 10 mL Ethanol for 5 min, and then 7 mm diameter skin punches were cut and placed in a black 96-well plate. UVB and UVA protections were measured after respectively an excitation at 300 nm and 355 nm and a fluorescence emission was read at 460 nm.
UVB protection has been assessed ex vivo on pig skin by measuring the autofluorescence quenching. BOO (Compound #5), BOO-OM (Compound #6) and the mix of BEMT+OCR were solubilized at the same molar concentration in DMDA (dimethyl capramide), covered 6.25 cm2 skin square and incubated 2 hours at 34° C., washed or not with 10 mL Ethanol for 5 min, and then 7 mm diameter skin punches were cut and placed in a black 96-well plate. UVB protection was measured after respectively an excitation at 300 nm and a fluorescence emission was read at 460 nm.

[1] = test system: polylysine matrix (non thiolated); assay: Bio adhesion on polylysine matrix (non thiolated); conditions: overnight incubation in ethanol/PBS (90%/10%), washed 10 times with ethanol
Experimental: (§1) Polylysine and Polylysine enriched in SH by thiolation of primary amines using Traut's reagent were used for coating 96-well microplates. UV filters (BOO and BOO-OM) were incubated overnight under orbital agitation on the different matrices (n=3 for each condition) (uncoated wells were used as negative controls), in an ethanol/PBS (90%/10%) solution. After incubation, each microplate well was thoroughly washed 10 times with ethanol, before measuring UV absorbance. Whole UV/Visible absorbance spectrum from 220 to 1000 nm were measured in the center of each microplate well. In addition, specific UV absorbance at 310 nm was measured by matrix scan over the whole the well as a 10×10 matrix.

[2] = Solubility in sunscreen solvents; assay type: physicochemical; conditions: 50° C.
Experimental: Compound #2 (OOD) and a sunscreen solvent were weighed in a Becher. The Becher was placed on a magnetic stir plate, heated up to 50° C., and the solution was vigorously mixed with a bar magnet.
Compound #4 (OHD) and a sunscreen solvent were weighed in a Becher. The Becher was placed on a magnetic stir plate, heated up to 50° C., and the solution was vigorously mixed with a bar magnet.
Compound #5 (BOO) and a sunscreen solvent were weighed in a Becher. The Becher was placed on a magnetic stir plate, heated up to 50° C., and the solution was vigorously mixed with a bar magnet.
Compound #6 (BOO-OM) and a sunscreen solvent were weighed in a Becher. The Becher was placed on a magnetic stir plate, heated up to 50° C., and the solution was vigorously mixed with a bar magnet.

[3] = UV absorbance profile: λmax in solvents, FLUOstar plate reader; assay type: physicochemical; conditions: for λmax double peak, first peak / λmax double peak, second peak: 50 μM
Experimental: Compound #2 (OOD), Univul A plus (DHHB)+Octocrylene (OCR) were dissolved in a solvent at the same concentration (125 μM).
Compound #4 (OHD), Univul A plus (DHHB)+Octocrylene (OCR) were dissolved in a solvent at the same concentration (125 μM).
Compound #5 (BOO) and BEMT (6,6′-(6-(4-methoxyphenyl)-1,3,5-triazine-2,4-diyl)bis(3-((2-ethylhexyl)oxy)phenol)=Tinosorb S)+Octocrylene (OCR) were dissolved in a solvent at the same concentration (50 μM).
UV Absorbance Profil of Compound #6 (BOO-OM) Compound #6 (BOO-OM) and BEMT (6,6′-(6-(4-methoxyphenyl)-1,3,5-triazine-2,4-diyl)bis(3-((2-ethylhexyl)oxy)phenol)=Tinosorb S)+Octocrylene (OCR) were dissolved in a solvent at the same concentration (50 μM).

[4] = test system: thiolated polylysine matrix; assay: Bio adhesion on thiolated polylysine matrix (UV absorbance at 310 nm after ethanol washes); conditions: overnight incubation in ethanol/PBS (90%/10%), washed 10 times with ethanol
Experimental: as §1

- soluble at ratio ([2]; Dimethyl capramide (Spectrasolv DMDA)): 1/10
- soluble at ratio ([2]; Dottisol (dimethyl isosorbide)): ½
- soluble at ratio ([2]; Dubdis (Diisopropyl sebacate)): ½
- λmax double peak, first peak ([3]; Dottisol): 290 nm
- λmax double peak, second peak ([3]; Dottisol): 307 nm
- λmax double peak, first peak ([3]; Dubdis): 289 nm
- λmax double peak, second peak ([3]; Dubdis): 309 nm
- λmax absorbance shift in UVB versus the mix of BEMT-OCR ([3]; same molar concentration, Dubdis, same shift in Dottisol): ≥ 20 nm
Compound: CCCCC(CC)COc1ccc(-c2nc(-c3ccc(OC)cc3)nc(-c3ccc(OCC(CC)CCCC)cc3OCCCCCCCCN3C(=O)C=CC3=O)n2)c(OCCCCCCCCNC(=O)C(C#N)=C(c2ccccc2)c2ccccc2)c1 (stereo not drawn) [Compound #6, 2-cyano-N-(8-(2-(4-(2-((8-(2,5-dioxo-2,5-dihydro-1H-pyrrol-1-yl)octyl)oxy)-4-((2-ethylhexyl)oxy)phenyl)-6-(4-methoxyphenyl)-1,3,5-triazin-2-yl)-5-((2-ethylhexyl)oxy)phenoxy)octyl)-3,3-diphenylacrylamide]
- UVB protection of the pig skin compared to the mix OCR+BEMT (pig skin; 2 h incubation, DMDA): similar
- bio adhesive (pig skin, ethanol wash) (pig skin; conclusion from UVB protection after ethanol wash): is bio adhesive
- UVB Fluorescence (Ex300/Em460) No Wash (pig skin; pig skin autofluorescence after 2 h of incubation, DMDA (dimethyl capramide), Mean +/− SD, N = 3): 40608 +/− 3466
- UVB Fluorescence (Ex300/Em460) EtOH Wash (pig skin; pig skin autofluorescence after 2 h of incubation, DMDA, 10 mL Ethanol 5 min, Mean +/− SD, N = 3): 108875 +/− 4401
- UVB protection after ethanol wash compared to the initial protection before washing (pig skin; pig skin, 2 h incubation, DMDA): reduced twice
- bioadhesion [1]: no bioadhesion
- bio adhesion, UV absorbance at 310 nm [4]: showed a bio adhesion
